Source: BindingDB's records for doi:10.1016/j.bmcl.2015.05.018 (Martin-Luther-University Halle-Wittenberg, 2015)

How the values were obtained:
[1] = Inhibition of human P-gp expressed in mouse T-cell lymphoma assessed as potentiation of daunorubicin-induced cellular toxicity by measuring daunorubicin IC50 at 5 uM by MTT assay (Rvb = 8.26 +/- 0.62 uM)
[2] = Inhibition of human P-gp expressed in mouse T-cell lymphoma assessed as potentiation of daunorubicin-induced cellular toxicity by measuring daunorubicin IC50 at 10 uM by MTT assay (Rvb = 8.26 +/- 0.62 uM)

Structure (SMILES) | IC50 [1] [nM] | IC50 [2] [nM]
CCOC(=O)C1=CN(Cc2ccccc2)c2ccccc2C1c1ccc(OC)c(OC)c1 (stereo not drawn) | 4760 | 390
CCOC(=O)C1=CN(Cc2ccccc2)c2ccccc2C1c1cccc(OC)c1 (stereo not drawn) |  | 860
